Experimental data from patent US9174994B2, “Enhanced treatment regimens using mTor inhibitors” (INTELLIKINE LLC, priority 2011, dated 2015).

Experiment: Phase I clinical trial: treatment-emergent adverse events (patients, n (%)), dose limiting toxicity, MTD
Format: in vivo
Method: Safety, maximum tolerated dose (MTD), pharmacokinetics (PK) and preliminary antitumor activity were evaluated.
Pharmacodynamic (PD) endpoints were evaluated in surrogate (peripheral blood cells [PBCs], skin) and tumor tissues for the phosphorylation of TORC1-dependent markers (4EBP1/S6), and TORC2-dependent markers (AKT/PRAS40).

With `CC(C)n1nc(-c2ccc3oc(N)nc3c2)c2c(N)ncnc21` [compound A] the Asthenia (15 mg/week (N = 3)) was 0 (0%), the Blood creatinine increased (15 mg/week (N = 3)) was 1 (33%) and the Blood triglycerides increased (15 mg/week (N = 3)) was 1 (33%). For the same molecule, the DIARRHEA (15 mg/week (N = 3)) was 0 (0%), the Decreased appetite (15 mg/week (N = 3)) was 0 (0%) and the Diarrhoea (15 mg/week (N = 3)) was 0 (0%). For the same molecule, the Dysgeusia (15 mg/week (N = 3)) was 0 (0%), the Dyspepsia (15 mg/week (N = 3)) was 0 (0%) and the HYPERGLYCEMIA (15 mg/week (N = 3)) was 0 (0%). For the same molecule, the Hyperglycaemia (15 mg/week (N = 3)) was 2 (67%), the Lymphopenia (15 mg/week (N = 3)) was 0 (0%) and the Malaise (15 mg/week (N = 3)) was 0 (0%). For the same molecule, the Mucosal inflammation (15 mg/week (N = 3)) was 0 (0%), the Muscle spasms (15 mg/week (N = 3)) was 0 (0%) and the Nausea (15 mg/week (N = 3)) was 2 (67%). The Oral discomfort (15 mg/week (N = 3)) was 0 (0%), the “Patients Reporting at Least One Related TEAE” value (“Patients Reporting” below) (15 mg/week (N = 3)) was 3 and the Pruritus (15 mg/week (N = 3)) was 0 (0%). For the same molecule, the RASH (15 mg/week (N = 3)) was 0 (0%), the Rash (15 mg/week (N = 3)) was 0 (0%) and the Vomiting (15 mg/week (N = 3)) was 0 (0%). The WEAKNESS (15 mg/week (N = 3)) was 0 (0%), the Alanine aminotransferase increased (16 mg/3 W, QDx3d QW (N = 3)) was 0 (0%) and the Asthenia (16 mg/3 W, QDx3d QW (N = 3)) was 1 (33%). For the same molecule, the Catheter site inflammation (16 mg/3 W, QDx3d QW (N = 3)) was 0 (0%), the Catheter site pain (16 mg/3 W, QDx3d QW (N = 3)) was 0 (0%) and the Decreased appetite (16 mg/3 W, QDx3d QW (N = 3)) was 0 (0%). The Diarrhoea (16 mg/3 W, QDx3d QW (N = 3)) was 1 (33%), the Dry skin (16 mg/3 W, QDx3d QW (N = 3)) was 0 (0%) and the Dysgeusia (16 mg/3 W, QDx3d QW (N = 3)) was 0 (0%). The Dyspnoea (16 mg/3 W, QDx3d QW (N = 3)) was 0 (0%), the Fatigue (16 mg/3 W, QDx3d QW (N = 3)) was 1 (33%) and the Headache (16 mg/3 W, QDx3d QW (N = 3)) was 1 (33%). The Hyperbilirubinaemia (16 mg/3 W, QDx3d QW (N = 3)) was 0 (0%), the Hypercholesterolaemia (16 mg/3 W, QDx3d QW (N = 3)) was 0 (0%) and the Hyperglycaemia (16 mg/3 W, QDx3d QW (N = 3)) was 2 (67%). For the same molecule, the Hypertransaminasaemia (16 mg/3 W, QDx3d QW (N = 3)) was 0 (0%), the Hypertriglyceridaemia (16 mg/3 W, QDx3d QW (N = 3)) was 0 (0%) and the Hypomagnesaemia (16 mg/3 W, QDx3d QW (N = 3)) was 0 (0%). The Hypotension (16 mg/3 W, QDx3d QW (N = 3)) was 0 (0%), the Low fever (16 mg/3 W, QDx3d QW (N = 3)) was 1 (33%) and the Lymphopenia (16 mg/3 W, QDx3d QW (N = 3)) was 0 (0%). The Mucosal inflammation (16 mg/3 W, QDx3d QW (N = 3)) was 2 (67%), the Nausea (16 mg/3 W, QDx3d QW (N = 3)) was 0 (0%) and the Palmar-plantar erythrodysaesthesia syndrome (16 mg/3 W, QDx3d QW (N = 3)) was 0 (0%). The “Patients Reporting” value (16 mg/3 W, QDx3d QW (N = 3)) was 2 (67%), the Platelet count decreased (16 mg/3 W, QDx3d QW (N = 3)) was 0 (0%) and the Pruritus (16 mg/3 W, QDx3d QW (N = 3)) was 0 (0%). The Pyrexia (16 mg/3 W, QDx3d QW (N = 3)) was 1 (33%), the Rash (16 mg/3 W, QDx3d QW (N = 3)) was 0 (0%) and the Rash macular (16 mg/3 W, QDx3d QW (N = 3)) was 0 (0%). The Urinary tract infection (16 mg/3 W, QDx3d QW (N = 3)) was 0 (0%), the Vomiting (16 mg/3 W, QDx3d QW (N = 3)) was 0 (0%) and the Asthenia (16 mg/3 W, QDx3d QW (N = 3), 2nd Asthenia line) was 1 (33%). For the same molecule, the Dose limiting toxicity (20 mg Q3D) was “Muco-”, the ASTHENIA (20 mg/week (N = 3)) was 0 (0%) and the ATHENIA (20 mg/week (N = 3)) was 0 (0%). The Alanine aminotransferase increased (20 mg/week (N = 3)) was 0 (0%), the Aspartate aminotransferase increased (20 mg/week (N = 3)) was 0 (0%) and the Asthenia (20 mg/week (N = 3)) was 2 (67%). For the same molecule, the Blood creatinine increased (20 mg/week (N = 3)) was 0 (0%), the Blood triglycerides increased (20 mg/week (N = 3)) was 0 (0%) and the DIARRHEA (20 mg/week (N = 3)) was 0 (0%). The Decreased appetite (20 mg/week (N = 3)) was 1 (33%), the Diarrhoea (20 mg/week (N = 3)) was 2 (67%) and the Dysgeusia (20 mg/week (N = 3)) was 0 (0%). The Dyspepsia (20 mg/week (N = 3)) was 1 (33%), the HYPERGLYCEMIA (20 mg/week (N = 3)) was 0 (0%) and the Hyperglycaemia (20 mg/week (N = 3)) was 1 (33%). For the same molecule, the Lymphopenia (20 mg/week (N = 3)) was 0 (0%), the Malaise (20 mg/week (N = 3)) was 0 (0%) and the Mucosal inflammation (20 mg/week (N = 3)) was 2 (67%). The Muscle spasms (20 mg/week (N = 3)) was 1 (33%), the Nausea (20 mg/week (N = 3)) was 2 (67%) and the Oral discomfort (20 mg/week (N = 3)) was 0 (0%). The “Patients Reporting” value (20 mg/week (N = 3)) was 2 (67%), the Pruritus (20 mg/week (N = 3)) was 1 (33%) and the RASH (20 mg/week (N = 3)) was 0 (0%). For the same molecule, the Rash (20 mg/week (N = 3)) was 1 (33%), the Vomiting (20 mg/week (N = 3)) was 1 (33%) and the WEAKNESS (20 mg/week (N = 3)) was 0 (0%). For the same molecule, the ASTHENIA (30 mg/week (N = 3)) was 1 (33%), the ATHENIA (30 mg/week (N = 3)) was 1 (33%) and the Alanine aminotransferase increased (30 mg/week (N = 3)) was 0 (0%). The Aspartate aminotransferase increased (30 mg/week (N = 3)) was 0 (0%), the Asthenia (30 mg/week (N = 3)) was 0 (0%) and the Blood creatinine increased (30 mg/week (N = 3)) was 0 (0%). For the same molecule, the Blood triglycerides increased (30 mg/week (N = 3)) was 0 (0%), the DIARRHEA (30 mg/week (N = 3)) was 1 (33%) and the Decreased appetite (30 mg/week (N = 3)) was 0 (0%). The Diarrhoea (30 mg/week (N = 3)) was 0 (0%), the Dysgeusia (30 mg/week (N = 3)) was 0 (0%) and the Dyspepsia (30 mg/week (N = 3)) was 0 (0%). For the same molecule, the HYPERGLYCEMIA (30 mg/week (N = 3)) was 2 (67%), the Hyperglycaemia (30 mg/week (N = 3)) was 0 (0%) and the Lymphopenia (30 mg/week (N = 3)) was 0 (0%). For the same molecule, the Malaise (30 mg/week (N = 3)) was 1 (33%), the Mucosal inflammation (30 mg/week (N = 3)) was 1 (33%) and the Muscle spasms (30 mg/week (N = 3)) was 0 (0%). For the same molecule, the Nausea (30 mg/week (N = 3)) was 3, the Oral discomfort (30 mg/week (N = 3)) was 0 (0%) and the “Patients Reporting” value (30 mg/week (N = 3)) was 3. For the same molecule, the Pruritus (30 mg/week (N = 3)) was 0 (0%), the RASH (30 mg/week (N = 3)) was 1 (33%) and the Rash (30 mg/week (N = 3)) was 0 (0%). For the same molecule, the Vomiting (30 mg/week (N = 3)) was 1 (33%), the WEAKNESS (30 mg/week (N = 3)) was 1 (33%) and the Dose limiting toxicity (40 mg QW) was “As-”.
